Measurements taken from US9561228B2 (Celgene Avilomics Research, Inc., priority 2013, dated 2017).

What was measured:
[1] = molecular target: T1, MEK1 activated ERK1 (Homo sapiens, UniProt P27361); test: Omnia continuous-read kinase assay for potency against MEK1 activated ERK1; assay type: biochemical; conditions: MEK1 activated ERK1, ATP at KM; read-out: ERK1 Omnia WT ATP KM IC50
T1 construct: purchased Millipore (Billerica, Mass.) 14-439-K
In short: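 Apparent IC50 came from initial reaction slopes (RFU vs time) plotted against log inhibitor with a variable-slope fit. Reactions were started with ERK1 (4 nM final) added to 50 μM ATP, roughly at its appKM, and 10 μM Sox-conjugated ST17 peptide in 20 mM Tris pH 7.5, 5 mM MgCl2. Fluorescence was monitored every 71 seconds.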

[2] = test system: HCT116 cells (colorectal carcinoma); test: Inhibition of cancer cell proliferation, HCT116 (CellTiterGlo, 72 hours); assay type: cell-based; conditions: Homo sapiens, HCT-116
In short: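 3000 cells per well exposed to 3-fold serial compound dilutions from 5,000 nM (two-fold solution, stock level) for 72 hours at 37° C. CellTiterGlo luminescence converted to cell number via a standard curve; percent inhibition vs untreated wells, GI50 by curve fit.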

T1 sequence (P27361 whole entry): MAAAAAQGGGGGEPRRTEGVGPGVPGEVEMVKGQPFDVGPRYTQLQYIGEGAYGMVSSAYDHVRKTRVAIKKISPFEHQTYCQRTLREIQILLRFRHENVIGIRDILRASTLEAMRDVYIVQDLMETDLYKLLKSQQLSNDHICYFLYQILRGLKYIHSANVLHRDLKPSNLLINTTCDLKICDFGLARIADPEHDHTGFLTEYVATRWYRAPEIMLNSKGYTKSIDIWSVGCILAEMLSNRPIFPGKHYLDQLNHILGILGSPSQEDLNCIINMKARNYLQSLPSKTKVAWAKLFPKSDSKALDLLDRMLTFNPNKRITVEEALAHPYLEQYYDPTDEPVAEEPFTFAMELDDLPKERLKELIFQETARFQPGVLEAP

Compound | IC50 [1] [nM] | GI50 [2] [nM]
C=CC(=O)Nc1cc(C)ccc1Nc1nc(Nc2cc(N[C@H]3CC[C@@H](O)CC3)nc(OC)c2)ncc1C(F)(F)F [Compound I-326, N-(2-((2-((2-((cis-4-hydroxycyclohexyl)amino)-6-methoxypyridin-4-yl)amino)-5-(trifluoromethyl)pyrimidin-4-yl)amino)-5-methylphenyl)acrylamide] | 101 to 500 | < 100
C=CS(=O)(=O)Nc1cc(C)ccc1Nc1nc(Nc2cc(OC)ncc2C)ncc1C(F)(F)F [Compound I-333, N-(2-((2-((2-methoxy-5-methylpyridin-4-yl)amino)-5-(trifluoromethyl)pyrimidin-4-yl)amino)-5-methylphenyl)ethenesulfonamide] | 101 to 500 | > 1000
C=CC(=O)Nc1cc(C)ccc1Nc1nc(Nc2cc(OC)nc(N(C)CCOC)c2)ncc1C(F)(F)F [Compound I-336, N-(2-((2-((2-methoxy-6-((2-methoxyethyl)(methyl)amino)pyridin-4-yl)amino)-5-(trifluoromethyl)pyrimidin-4-yl)amino)-5-methylphenyl)acrylamide] | 501 to 999 | 101 to 500
C=CC(=O)Nc1cc(C)ccc1Nc1nc(Nc2cc(NC3CC3)nc(OC)c2)ncc1C(F)(F)F [Compound I-337, N-(2-((2-((2-(cyclopropylamino)-6-methoxypyridin-4-yl)amino)-5-(trifluoromethyl)pyrimidin-4-yl)amino)-5-methylphenyl)acrylamide] | 501 to 999 | < 100
C=CC(=O)Nc1ccccc1Nc1nc(Nc2cc(OC)cc(OC)c2)ncc1C(F)(F)F [Compound I-338, N-(2-((2-((3,5-dimethoxyphenyl)amino)-5-(trifluoromethyl)pyrimidin-4-yl)amino)phenyl)acrylamide] | 101 to 500 | < 100
C=CC(=O)Nc1ccccc1Nc1nc(Nc2cc(OC)ccc2C)ncc1C(F)(F)F [Compound I-340, N-(2-((2-((5-methoxy-2-methylphenyl)amino)-5-(trifluoromethyl)pyrimidin-4-yl)amino)phenyl)acrylamide] | 101 to 500 | 501 to 999
C=CC(=O)Nc1cc(C)ccc1Nc1nc(Nc2cc(OC)nc(N(C)C3CC3)c2)ncc1C(F)(F)F [Compound I-342, N-(2-((2-((2-(cyclopropyl(methyl)amino)-6-methoxypyridin-4-yl)amino)-5-(trifluoromethyl)pyrimidin-4-yl)amino)-5-methylphenyl)acrylamide] | 501 to 999 | 101 to 500

Further lines, results first:

IC50 [1] [nM] | GI50 [2] [nM] | Compound
101 to 500 | < 100 | C=CC(=O)Nc1cc(C)ccc1Nc1nc(Nc2cc(OC)nc(N3CCOCC3)c2)ncc1C(F)(F)F [Compound I-94, N-(2-((2-((2-Methoxy-6-morpholinopyridin-4-yl)amino)-5-(trifluoromethyl)pyrimidin-4-yl)amino)-5-methylphenyl)acrylamide]
< 100 | 101 to 500 | C=CC(=O)Nc1ccccc1Nc1nc(N[C@H]2CCCN(C(C)=O)C2)ncc1Cl [Compound I-115, (S)—N-(2-((2-((1-acetylpiperidin-3-yl)amino)-5-chloropyrimidin-4-yl)amino)phenyl)acrylamide]
101 to 500 | > 1000 | C=CC(=O)Nc1cc(C)ccc1Nc1nc(Nc2cc(C(N)=O)ccn2)ncc1Cl [Compound I-238, 2-((4-((2-acrylamido-4-methylphenyl)amino)-5-chloropyrimidin-2-yl)amino)isonicotinamide]
101 to 500 | 101 to 500 | C=CC(=O)Nc1cc(OC)ccc1Nc1nc(Nc2cc(Cl)nc(OC)c2)ncc1Cl [Compound I-245, N-(2-((5-chloro-2-((2-chloro-6-methoxypyridin-4-yl)amino)pyrimidin-4-yl)amino)-5-methoxyphenyl)acrylamide]
101 to 500 | 101 to 500 | C=CC(=O)Nc1ccccc1Nc1nc(Nc2cc(Cl)nc(OC)c2)ncc1Cl [Compound I-246, N-(2-((5-chloro-2-((2-chloro-6-methoxypyridin-4-yl)amino)pyrimidin-4-yl)amino)phenyl)acrylamide]
101 to 500 | < 100 | C=CC(=O)Nc1ccccc1Nc1nc(Nc2cc(OC)nc(N3CCCCC3)c2)ncc1C(F)(F)F [Compound I-282, N-(2-((2-((2-Methoxy-6-(piperidin-1-yl)pyridin-4-yl)amino)-5-(trifluoromethyl)pyrimidin-4-yl)amino)phenyl)acrylamide]
< 100 | < 100 | C=CC(=O)Nc1ccccc1Nc1nc(Nc2cc(N[C@H]3CC[C@@H](O)CC3)nc(OC)c2)ncc1C(F)(F)F [Compound I-292]
101 to 500 | 101 to 500 | C=CC(=O)Nc1ccccc1Nc1nc(Nc2ccnnc2)ncc1C(F)(F)F [Compound I-293, N-(2-((2-(Pyridazin-4-ylamino)-5-(trifluoromethyl)pyrimidin-4-yl)amino)phenyl)acrylamide]
101 to 500 | 501 to 999 | C=CC(=O)Nc1cc(C(F)(F)F)ccc1Nc1nc(Nc2cc(OC)ncc2C)ncc1C(F)(F)F [Compound I-323, N-(2-((2-((2-methoxy-5-methylpyridin-4-yl)amino)-5-(trifluoromethyl)pyrimidin-4-yl)amino)-5-(trifluoromethyl)phenyl)acrylamide]
101 to 500 | < 100 | C=CC(=O)Nc1cc(C)ccc1Nc1nc(Nc2cc(OC)nc(N3CCN(C)CC3)c2)ncc1C(F)(F)F [Compound I-325, N-(2-((2-((2-methoxy-6-(4-methylpiperazin-1-yl)pyridin-4-yl)amino)-5-(trifluoromethyl)pyrimidin-4-yl)amino)-5-methylphenyl)acrylamide]
